Data as given in patent publication US20190327974A1, “SYNERGISTS FOR IMPROVED PESTICIDES” (priority 2017, published 2019).
Changes are numbered by the printed parent chain. Marks after values point to notes of the source that are not given here.

Key:
[1] = molecular target: T1, Gly137Asp LcαE7 (Gly137Asp variant of αE7 carboxylesterase) (Lucilia cuprina, UniProt Q25252, G137D); assay: Inhibition of Gly137Asp αE7 (competition assay, hydrolysis of 4-nitrophenol butyrate), dose-response curves of FIG. 8; type: biochemical
T1 construct: GenBank number is of the wild-type parent
Description: FIG. 8 presents dose-response curves for the inhibition of Glyl37Asp αE7. Inhibition of the hydrolysis of […] was determined for phenyl boronic acid (PBA) and compounds 1-5 and 3.1-3.12. Three (technical) replicate measurements of enzyme activity were performed for each concentration of boronic acid. The concentration of boronic acid required to inhibit 50% of activity (IC50) was determined by fitting a sigmoidal dose-response curve to plots of percentage inhibition. The curve was constrained to 0 (bottom) and 100% (top) inhibition with a variable Hill slope. […]
His6-tagged proteins were expressed in BL21(DE3) E. coli (Invitrogen) at 26° C. for 18 hours. Cells were collected by centrifugation, resuspended in lysis buffer (300 mM NaCl, 10 mM imidazole, 50 mM HEPES pH 7.5) and lysed by sonication. Cell debris was pelleted by centrifugation and the soluble fraction was loaded onto a HisTrap-HP Ni-Sepharose column (GE Healthcare). Bound protein was eluted with lysis buffer supplemented with 300 mM imidazole. Fractions containing the eluted protein were concentrated with a 30 kDa molecular mass cutoff centrifuge concentrator (Amicon) and loaded onto a HiLoad 26/60 Superdex-200 size-exclusion column (GE Healthcare) pre-equilibrated with 150 mM NaCl, 20 mM HEPES pH 7.5. Eluted fractions containing the monomeric protein were pooled for enzyme inhibition assays or crystallization. Protein concentration was determined by measuring the absorbance at 280 nm with an extinction coefficient calculated using the Protparam online server (Gasteiger, E. et al. Protein identification and analysis tools on the ExPASy server. Proteomics Protoc. Handb. 571-607 (2005). doi:10.1385/1-59259-890-0:571).
(§1) Inhibition of wild-type αE7 and the Gly137Asp αE7 variant was determined by a competition assay between the native-substrate analogue 4-nitrophenol butyrate (Sigma) and the boronic acid compounds. Initially, the Michalis constant (KM) with 4-nitrophenol butyrate was measured for both enzymes to determine an appropriate concentration of substrate for use in the competition assays. Formation of the 4-nitrophenolate product of hydrolysis was monitored at 405 nm in the presence of enzyme and eight different concentrations of substrate. 4-nitrophenol butyrate was prepared in methanol to 100 mM and serially diluted 1-in-2 to achieve concentrations from 100 mM to 0.8 mM. Enzyme stocks were prepared in 4 mg/ml bovine serum albumin (Sigma) to maintain enzyme stability. Reactions were prepared by pipetting 178 μl assay buffer (100 mM NaCl, 20 mM HEPES pH 7.5) and 2 μl substrate (final concentrations of 1000 to 8 μM) into 300 μl wells of a 96-well plate. The reaction was initiated by the addition of 20 μl enzyme (final concentration 2.5 nM for wildtype αE7 and 4 nM for Gly137Asp αE7). Product formation was monitored for four minutes at room temperature using an Epoch microplate spectrophotometer (BioTek) and the initial rates of ester hydrolysis were determined by linear regression using GraphPad Prism. The Michalis constant was determined by fitting the initial rates to the Michalis-Menton equation (FIG. 10).
Enzyme inhibition with the boronic acid compounds was determined by assaying the initial rate of 4-nitrophenol butyrate hydrolysis in the presence of either neat DMSO or the boronic acid compounds in DMSO. Compounds were prepared by serially diluting 1-in-3 an initial 10 mM stock to achieve concentrations from 10 mM to 2 nM. Reactions were prepared by pipetting 178 μl assay buffer supplemented with substrate to a final concentration equal to the KM of the enzyme (15 μM for wildtype αE7 and 250 μM for Gly137Asp αE7) into wells of a 96-well plate. 2 μl neat DMSO or 2 μl serially diluted inhibitor (final concentrations of 100 μM to 20 pM) were added to the wells. The reaction was initiated by the addition of 20 μl enzyme (final concentration 0.5 nM for wildtype αE7 and 10 nM for Glyl37Asp αE7). […]

wildtype LcαE7 = molecular target: T2, wildtype LcαE7 (Lucilia cuprina, UniProt Q25252); assay: Enzyme inhibition assay with 4-nitrophenol butyrate, wild-type; type: biochemical
T2 sequence (Q25252 1-570): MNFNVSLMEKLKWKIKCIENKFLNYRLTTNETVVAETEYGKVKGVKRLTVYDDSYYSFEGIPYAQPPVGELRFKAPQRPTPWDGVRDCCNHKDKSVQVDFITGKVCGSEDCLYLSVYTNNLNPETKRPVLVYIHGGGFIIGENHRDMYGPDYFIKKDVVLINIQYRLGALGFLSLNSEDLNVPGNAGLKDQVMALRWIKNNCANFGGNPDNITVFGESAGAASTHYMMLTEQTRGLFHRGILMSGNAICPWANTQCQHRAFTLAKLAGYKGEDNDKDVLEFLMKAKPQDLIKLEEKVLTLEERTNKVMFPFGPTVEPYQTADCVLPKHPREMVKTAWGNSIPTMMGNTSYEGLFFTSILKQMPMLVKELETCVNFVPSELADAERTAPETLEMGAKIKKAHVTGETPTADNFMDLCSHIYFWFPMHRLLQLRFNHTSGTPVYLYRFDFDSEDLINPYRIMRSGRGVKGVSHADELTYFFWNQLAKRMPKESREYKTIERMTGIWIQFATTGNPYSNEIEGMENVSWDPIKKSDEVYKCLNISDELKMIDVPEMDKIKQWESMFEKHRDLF
Description: Wild-type LcαE7 was heterologously expressed in Escherichia coli and purified using metal ion affinity and size exclusion chromatography. The potency of the boronic acids was determined by enzymatic assays of recombinant LcαE7 with the model carboxylester substrate 4-nitrophenol butyrate.
as §1
(§2) Enzyme inhibition with the boronic acid compounds was determined by assaying the initial rate of 4-nitrophenol butyrate hydrolysis in the presence of either neat DMSO or the boronic acid compounds in DMSO. Compounds were prepared by serially diluting 1-in-3 an initial 10 mM stock to achieve concentrations from 10 mM to 2 nM. Reactions were prepared by pipetting 178 μl assay buffer supplemented with substrate to a final concentration equal to the KM of the enzyme (15 μM for wildtype αE7 and 250 μM for Gly137Asp αE7) into wells of a 96-well plate. 2 μl neat DMSO or 2 μl serially diluted inhibitor (final concentrations of 100 μM to 20 pM) were added to the wells. The reaction was initiated by the addition of 20 μl enzyme (final concentration 0.5 nM for wildtype αE7 and 10 nM for Glyl37Asp αE7). Product formation was monitored for four minutes at room temperature and the initial rates of ester hydrolysis were determined by linear regression. To determine the concentration of boronic acid compounds required to inhibit 50% of esterase activity (IC50), a four-parameter sigmoidal dose-response curve was fitted to percentage inhibition using GraphPad Prism (FIGS. 7 and 8). Ki values were determined using the Cheng-Prusoff equation assuming competitive inhibition (Yung-Chi, C. & Prusoff W. H. Relationship between the inhibition constant (KI) and the concentration of inhibitor which causes 50 percent inhibition (150) of an enzymatic reaction. Biochem. Pharmacol. 22, 3099-3108 (1973)).

Gly137Asp LcαE7 = molecular target: T3, Gly137Asp LcαE7 (Lucilia cuprina, UniProt Q25252, G137D); assay: Enzyme inhibition assay with 4-nitrophenol butyrate, Gly137Asp variant; type: biochemical
T3 sequence (Q25252 1-570 G137D): T2 sequence (Q25252 1-570) with G137D
Description: as §1, §2
The two most common CBE-mediated insecticide resistance mechanisms involve increased protein expression, or mutation to gain new catalytic (OP-hydrolase) functions. Compounds 1 to 5 were tested against the resistance associated Gly137Asp variant of LcαE7^17,27 (Table 1). The Glyl37Asp mutation is located in the oxyanion hole and positions a new general base in the active site to catalyze dephosphorylation of the catalytic serine. Thus, compounds that inhibit WT LcαE7 as well as this common resistance associated Glyl37Asp variant would increase the efficacy of OPs by targeting both detoxification routes. Encouraged by the activity of the boronic acids 1 to 5, the compounds were tested against the Gly137Asp variant of LcαE7 (Table 1).

[2] = molecular target: Culex quinquefasciatus CBE (Culex quinquefasciatus, UniProt Q23734); assay: Inhibition of insect CBEs, 4-NPB substrate; type: biochemical; conditions: n=3
Description: (§3) Assays were performed with 4-NPB as the substrate.

Anopheles gambiae CBE = assay: Inhibition of insect CBEs, 4-NPB substrate; type: biochemical; conditions: n=3
Description: as §3

Aedes aegypti CBE = assay: Inhibition of insect CBEs, 4-NPB substrate; type: biochemical; conditions: n=3
Description: as §3

[3] = tested on: Lucilia cuprina larvae, field strain Tara resistant to diazinon; assay: Lucilia cuprina larval bioassay (pupation rate), field strain; type: in vivo
Text: Diazinon resistance is typically associated with the Gly137Asp mutation/resistance allele. […] This is consistent with previous results showing that duplications of the chromosomal region containing αE7 have occurred, meaning that resistant strains now carry copies of both WT and Glyl37Asp LcαE7.
(§4) Two strains of L. cuprina were used: 1) a laboratory reference drug-susceptible strain, LS, derived from collections in the Australian Capital Territory over 40 years ago, with no history of exposure to insecticides; and 2) a field-collected strain, Tara, resistant to diazinon and diflubenzuron (Levot, G. W. & Sales, N. New high level resistance to diflubenzuron detected in the Australian sheep blowfly, Lucilia cuprina (Wiedemann) (Diptera: Calliphoridae). Gen. Appl. Entomol. 31, 43-46 (2002)). The LcαE7 gene was sequenced in each of the strains. Briefly, genomic DNA was prepared from 20 adult female flies from each strain using the DNeasy Blood and Tissue kit (Qiagen). PCR was performed with primers specific to the LcαE7 gene, and the product was cloned into a pGEM-T EASY vector (Promega). Eight clones of the susceptible strain and 10 clones of the resistant strain were sequenced using M13 forward and reverse primers.
The effect of compounds 2, 3, 5, 3.9 and 3.10 on the development of blowfly larvae in the presence of diazinon/malathion was assessed using a bioassay system in which larvae were allowed to develop from the first instar stage until pupation on cotton wool impregnated with diazinon/malathion over a range of concentrations, in the presence or absence of the compounds at constant concentrations (Kotze, A. C. et al. Histone deacetylase enzymes as drug targets for the control of the sheep blowfly, Lucilia cuprina. Int. J. Parasitol. Drugs Drug Resist. 5, 201-208 (2015)). Each experiment utilized 50 larvae at each diazinon/malathion concentration. Experiments were replicated three times for diazinon, and twice for malathion. The insecticidal effects were defined by measuring the pupation rate. […] Compounds were also without diazinon or malathion at 1 mg per assay.

[4] = tested on: Lucilia cuprina larvae, laboratory drug-susceptible strain LS; assay: Lucilia cuprina larval bioassay (pupation rate), laboratory strain; type: in vivo; conditions: laboratory (LS) strain; pupation rate; boronic acid, where present, at 1 mg/assay
Description: Inhibitor efficacy was determined by treating larvae with diazinon over a range of concentrations, in the presence or absence of the compounds at constant concentrations, and comparing pupation rates.
as §4
Each experiment utilized 50 larvae at each diazinon/malathion concentration. Experiments were replicated three times for diazinon, and twice for malathion. The insecticidal effects were defined by measuring the pupation rate. […] Compounds were also without diazinon or malathion at 1 mg per assay.

SMILES | Ki [2] [nM] | Ki (Anopheles gambiae CBE) [nM] | Ki (Aedes aegypti CBE) [nM] | also measured
OB(O)c1cc(Cl)cc(N2CCCC2)c1 [Compound 3.2] |  |  |  | IC50 [1]: 400 nM; Ki (wildtype LcαE7): 0.35 nM; Ki (Gly137Asp LcαE7): 210 nM
O=C(Nc1ccccc1Cl)c1cc(B(O)O)ccc1Cl [Compound C2] | 3600 | 420 | 37000 | 
OB(O)c1cc2ccc(OCc3ccccc3)cc2[nH]1 [Compound C10] | 190 | 80 | 10 | 
OB(O)c1ccc(COc2ccc(Cl)c3ccccc23)cc1 [Compound C21] | 140 | 200 | 10000 | 
CCOP(=S)(OCC)Oc1cc(C)nc(C(C)C)n1 [Dz alone, diazinon] |  |  |  | RR = resistance ratio ([3]; EC50 with the field strain/EC50 for Dz alone for the laboratory strain): 2.86 ^#; diazinon EC50 for the field strain compared to the laboratory strain ([3]; absence of the boronic acids, fold higher): 2.9 fold; Diazinon dose response EC50 ([3]; field (Tara) strain, pupation rate, boronic acid, where present, at 1 mg/assay): 2.29 μg/assay; Diazinon dose response EC50 [4]: 0.80 μg/assay
CCOC(=O)CC(SP(=S)(OC)OC)C(=O)OCC (centres unmarked) [Mal alone, malathion, reference compound] |  |  |  | Malathion dose response EC50 [4]: 2.06 μg/assay
